Holding throughout (type): in vivo
Assay [1] has as its system sunflower line B770. Description: Greenhouse spray with imazapyr, visual inspection for injury. The note with it: imazapyr 80 gr ai/ha, two weeks after treatment. The procedure:
(§1) 300 seeds of a wild sunflower population known to be tolerant to IMIs were sown under greenhouse conditions at Nidera Experimental Station in Venado Tuerto, Santa Fe, Argentina, together with the control lines HA89, B770 (Susceptible—[…]), BTI-M1 and RHA426 (Resistant—“R”). At the V4 stage all the plants were sprayed with imazapyr at a rate of 80 gr ai/ha. Two weeks after treatment, all the plants were evaluated by visual inspection for injury. S lines HA89 and B770 were killed by the treatment. […] In total, […] plants of the wild population resisted the herbicide treatment and 129 were killed (categorized as S).
One R plant (RW-73) was used as male in crosses with the cultivated susceptible lines HA89 and B770. Ten to 20 F1 plants from each cross were sprayed with imazapyr at a rate of 80 gr ai/ha, using B770 (S) and BTI-M1 (R) as controls. […] However, imazapyr treatment killed the B770 plants.

A further assay deals with sunflower line BTI-M1. Described as above. The note with it: imazapyr 80 gr ai/ha at V4, two weeks after treatment. The procedure: as §1
The test system of assay [2] is sunflower line RHA426. The assay is described as above. The note with it: imazapyr 80 gr ai/ha at V4, two weeks after treatment. How it is done: as §1
In a further assay the test system is sunflower line HA89. The description is as above. The note with it: imazapyr 80 gr ai/ha at V4, two weeks after treatment. The procedure:
as §1

Assay [3] concerns sunflower line RHA426. Description: Allelism test, challenge with imazapyr. The note with it: control line RHA426; imazapyr 320 g a.i. ha-1 at V2-V4. An excerpt:
RW-B plants were crossed with RHA426 in order to determine if the resistant gene in RW-B is allelic to Imr1, the mutation previously described in imidazolinone resistant inbred lines. In this cross, F1 hybrids plants were self pollinated and backcrossed to RHA426 to obtain the F2 and BC1F1 generations, respectively. Plants from the parents and from F1, F2 and BC were challenged with 160 g a.i. ha^−1 and 320 g a.i. ha^−1 of imazapyr at the V2-V4 stage. Post challenge, plants were scored as described above.
On the other hand, when F2 and BC populations were scored after applying herbicide at the higher rate (320 g a.i. ha^−1), segregation for susceptibility could be observed. Only two phenotypic classes were detected, a resistant class composed of plants that were without any sign of injury or only slight symptoms, and a susceptible phenotype that was killed at this dose in much the same way as the control line RHA426.

Assay [4] has as its system sunflower line B770. Description: Whole plant dose response to imazapyr. To be noted: line B770 (WT-Susceptible), 14 DAT; for Dry weight (as a % of the untreated plants): above ground biomass; for Phytotoxicity Index: scale 0-9. The procedure: (§2) Seeds were sown in Petri dishes and, after germination; plantlets were transplanted to pots of 10 cm of diameter in a potting media consisting of equal parts of vermiculite, soil and sand. Plants were grown in a greenhouse under natural light conditions supplemented with 400 W sodium halide lamps to provide a 16 hr day-length. Day/night temperatures were 25 and 20° C., respectively. At the V2-V4 stage (Schneiter & Miller, 1981) 10 plants of each genotype were randomly assigned to each treatment consisting of eight imazapyr doses (0, 40, 80, 160, 320, 480, 640 and 800 g ai/ha, without treatment, 0.5×, 1×, 2×, 4×, 6×, 8× and 10× respectively), and a zero-time biomass determination. Experiment was arranged as a randomized block design with a full factorial (sunflower line x treatment) arrangement of treatments and 10 replications.
(§3) On the day of herbicide application ten plants of each genotype were cut at the cotyledonal node and dried at 60° C. for 48 hrs for zero-time dried weight determination.
(§4) The remaining plants were maintained for 14 days after imazapyr treatment (DAT) and their height, Phytotoxicity Index (PI) and above ground dry biomass were determined. Height was determined as the distance between the cotyledonal node and the apex of each plant. Above ground biomass data from each line were converted to biomass accumulation after application by subtracting the appropriate average zero-time biomass from each sample. Dry biomass data were converted to percentages of the untreated control plants within each line to allow direct comparisons between groups. […] Plants without any symptoms were recorded as “0”, increasing levels of stunting and chlorosis with respect to the untreated control plants were recorded as “1” to “4”, increasing levels of leaf abnormalities and leaf necrosis were recorded from “5” to “8”, and dead plants with total necrosis of the apex were recorded as “9”.

Assay [5] relates to sunflower line RW-B. Description: Whole plant dose response to imazapyr. The note with it: from 4x to 10x rates of herbicide application, 14 DAT. The procedure: as §2, §3, §4
In assay [6] the test system is sunflower line RW-B. Description: Resistance to different AHAS-inhibitor herbicides, Phytotoxicity Index (FIG. 4). To be noted: concentration of at least 67 grams of active ingredient per hectare. The source says: Sunflower lines: The following genetic sunflower lines were used in determining AHAS resistance: two S lines (“B770” and “HA89”), two lines resistant to SUs derived from the population SURES (SuBL and SuRL), two lines resistant to IMIs derived from the population IMISUN (“Rha 426” and “B770imi”) and the line “RW-B”. […] SURES and IMISUN are breeding populations release by the USDA. B770 is a proprietary line from Nidera. B770imi is a proprietary line with B770 background carrying the resistant gene Imr1. RW-B was obtained as described above.
Plants were grown in a greenhouse under natural light conditions supplemented with 400 W halide lamps to provide a 14 h day length. Day/night temperatures were 25 and 20° C., respectively. […] Plants without any symptoms were recorded as “0,” increasing levels of stunting and yellowing with respect to the untreated control plants were recorded as “1” to “4,” increasing levels of leaf abnormalities and leaf necrosis were recorded from “5” to “8,” and dead plants with total necrosis of the apex were recorded as “9.” PI data for each experiment were analyzed by an ANOVA test, means were compared by a LSD test.
Response of sunflower lines (B770, HA89, SuBL, SuRL, Rha426, B770imi and RW-B) to four different families of AHAS inhibiting herbicides. […] The injury was measured using Phytotoxicity Index (PI).

The structures appear in SMILES notation. Several values for one entry are separate records, joined by “and”; a condition that tells them apart may be missing. Identical values can stand only once. Marks after values point to notes of the source that are not given here.

Turning to `CC(C)C1(C)N=C(c2ncccc2C(=O)O)NC1=O` (stereo not shown) [imazapyr], the “injury by visual inspection” value with sunflower line B770 [1] was “killed”; in the assay on sunflower line BTI-M1, “did not present any signs of damage”; with sunflower line RHA426 [2], “signs of chlorosis”; in the assay with sunflower line HA89 it was “killed”. The response to imazapyr entry with sunflower line RHA426 [3] is listed as “killed”. In addition, the “Dry weight (as a % of the untreated plants)” value in the assay on sunflower line B770 [4] (imazapyr 0.5x = 40 g ai/ha) is on record as 32.7^d %; with sunflower line B770 [4] (imazapyr 1x = 80 g ai/ha) it was 30.2^d %; in the assay on sunflower line B770 [4] (imazapyr 2x = 160 g ai/ha), 27.6^d %; in the assay with sunflower line B770 [4] (imazapyr 4x = 320 g ai/ha) it was 26.5^d %; in the assay with sunflower line B770 [4] (imazapyr 6x = 480 g ai/ha) it was 25.9^d %; with sunflower line B770 [4] (imazapyr 8x = 640 g ai/ha) it was 25.7^d %. In addition, the “Dry weight (as a % of the untreated plants)” value with sunflower line B770 [4] (imazapyr 10x = 800 g ai/ha) was 25.2^d %. The “Height (as % of the untreated plants)” value is 35.0% and 35.0^c % in the assay on sunflower line B770 [4] (imazapyr 0.5x = 40 g ai/ha); 31.8^c % with sunflower line B770 [4] (imazapyr 1x = 80 g ai/ha); 31.9^d % in the assay on sunflower line B770 [4] (imazapyr 2x = 160 g ai/ha); 31.9^d % in the assay on sunflower line B770 [4] (imazapyr 4x = 320 g ai/ha); 31.6^d % with sunflower line B770 [4] (imazapyr 6x = 480 g ai/ha); 31.7^d % with sunflower line B770 [4] (imazapyr 8x = 640 g ai/ha). Moreover, the “Height (as % of the untreated plants)” value in the assay on sunflower line B770 [4] (imazapyr 10x = 800 g ai/ha) is reported as 31.4^c %. Moreover, the “Phytotoxicity Index” value in the assay with sunflower line B770 [4] (imazapyr 0.5x = 40 g ai/ha) is on record as 8.9^a; with sunflower line B770 [4] (imazapyr 1x = 80 g ai/ha), 9^a; in the assay with sunflower line B770 [4] (imazapyr 2x = 160 g ai/ha), 9^a; in the assay with sunflower line B770 [4] (imazapyr 4x = 320 g ai/ha), 9^a; with sunflower line B770 [4] (imazapyr 6x = 480 g ai/ha), 9^a; in the assay with sunflower line B770 [4] (imazapyr 8x = 640 g ai/ha), 9^a. Besides, in the assay with sunflower line B770 [4] (imazapyr 10x = 800 g ai/ha), the “Phytotoxicity Index” value was 9^a. In addition, in the assay with sunflower line RW-B [5], the “height, % of the untreated control plants” value stood at 75%.
Regarding `CCOc1nc(F)cc2nc(S(=O)(=O)Nc3c(Cl)cccc3C(=O)OC)nn12` [cloransulam-methyl], the “resistance of RW-B” value in the assay on sunflower line RW-B [6] is given as “resistance”.
